Measurements published in patent publication US10266497B2 (ABIDE THERAPEUTICS, INC., priority 2017, dated 2019).

Key:
MAGL [1] = biological target: T1, MAGL (Homo sapiens, UniProt Q99685); assay: In vitro competitive activity-based protein profiling, MAGL, human; settings: for inhibition at 1 µM: read-out: MAGL % inh. 1 μM (human); for inhibition at 10 µM: read-out: MAGL % inh. (human) at 10 uM
T1 sequence (Q99685 1-303): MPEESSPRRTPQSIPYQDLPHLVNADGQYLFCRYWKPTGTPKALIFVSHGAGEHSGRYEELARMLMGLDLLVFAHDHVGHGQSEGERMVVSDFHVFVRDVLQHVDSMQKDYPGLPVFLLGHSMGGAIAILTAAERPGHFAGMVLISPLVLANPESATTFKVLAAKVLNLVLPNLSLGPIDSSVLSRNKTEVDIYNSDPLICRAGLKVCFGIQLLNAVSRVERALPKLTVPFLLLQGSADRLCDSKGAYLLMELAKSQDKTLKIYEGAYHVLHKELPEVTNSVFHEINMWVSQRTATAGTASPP

MAGL [2] = biological target: T2, MAGL (Mus musculus, UniProt O35678); assay: In vitro competitive activity-based protein profiling, MAGL, mouse; settings: read-out: MAGL % inh. 1 μM (mouse)
T2 sequence (O35678 1-303): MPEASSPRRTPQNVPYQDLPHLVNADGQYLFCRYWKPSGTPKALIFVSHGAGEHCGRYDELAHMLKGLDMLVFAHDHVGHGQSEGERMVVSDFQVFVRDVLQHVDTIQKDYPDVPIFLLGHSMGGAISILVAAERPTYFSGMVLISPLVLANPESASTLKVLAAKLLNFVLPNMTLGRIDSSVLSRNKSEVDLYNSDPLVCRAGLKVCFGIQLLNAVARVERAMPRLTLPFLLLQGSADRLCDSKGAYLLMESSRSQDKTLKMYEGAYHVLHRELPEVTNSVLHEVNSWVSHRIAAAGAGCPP

inhibition at 1 µM (MAGL [1])	inhibition at 1 µM (MAGL [2])	inhibition at 10 µM (MAGL [1])	SMILES
> 75%	> 75%	–	O=C(O)c1ccn(C(=O)N2CCN(Cc3ccc(C(F)(F)F)cc3N3CC[C@@H](O)C3)CC2)n1 [Example 333, (R)-1-(4-(2-(3-hydroxypyrrolidin-1-yl)-4-(trifluoromethyl)benzyl)piperazine-1-carbonyl)-1H-pyrazole-3-carboxylic acid]
> 75%	> 75%	–	O=C(O)c1ccn(C(=O)N2CCC(OCc3cc(N4CCCC4)cc(C(F)(F)F)c3)CC2)n1 [Example 331, 1-(4-((3-(pyrrolidin-1-yl)-5-(trifluoromethyl)benzyl)oxy)piper-idine-1-carbonyl)-1H-pyrazole-3-carboxylic acid]
> 75%	> 75%	–	O=C(O)c1ccn(C(=O)N2CCC(OCc3cc(Cl)cc(C(F)(F)F)c3)CC2)n1 [Example 275, 1-(4-((3-chloro-5-(trifluoromethyl)benzyl)oxy)piper-idine-1-carbonyl)-1H-pyrazole-3-carboxylic acid]
25 to 50%	0 to 25%	–	O=C(O)c1ccn(C(=O)N2C[C@H]3C[C@H](Oc4cccc(-c5ccnnc5)c4)C[C@H]3C2)n1 [Example 248, 1-(trans-5-(3-(pyridazin-4-yl)phenoxy)octa-hydrocyclopenta[c]pyrrole-2-carbonyl)-1H-pyrazole-3-carboxylic acid]
> 75%	> 75%	–	C[C@H]1C[C@H](N(C)Cc2cccc(C(F)(F)F)c2)CCN1C(=O)n1ccc(C(N)=O)n1 [Example 259, 1-((2S,4R)-2-methyl-4-(methyl(3-(trifluoromethyl)benzyl)amino)piperidine-1-carbonyl)-1H-pyrazole-3-carboxamide]
> 75%	> 75%	–	O=C(O)c1ccn(C(=O)N2C[C@H]3C[C@H](OCc4ccc(Cl)c(-c5nccs5)c4)C[C@H]3C2)n1 [Example 345, 1-(trans-5-((4-chloro-3-(thiazol-2-yl)benzyl)oxy)octa-hydrocyclopenta[c]pyrrole-2-carbonyl)-1H-pyrazole-3-carboxylic acid]
> 75%	> 75%	–	Cc1cn(C(=O)N2C[C@H]3C[C@H](OCc4cccc(C(F)(F)F)c4)C[C@H]3C2)nc1C(=O)O [Example 290, 4-methyl-1-(trans-5-((3-(trifluoromethyl)benzyl)oxy)octa-hydrocyclopenta[c]pyrrole-2-carbonyl)-1H-pyrazole-3-carboxylic acid]
> 75%	> 75%	–	C[C@H]1CN(Cc2cc(F)cc(Oc3ccccc3Cl)c2)CCN1C(=O)n1ccc(C(=O)O)n1 [Example 349, (S)-1-(4-(3-(2-chlorophenoxy)-5-fluorobenzyl)-2-methylpiperazine-1-carbonyl)-1H-pyrazole-3-carboxylic acid]
–	0 to 25%	> 75%	O=C(O)c1ccn(C(=O)N2CCC3(CCN(Cc4ccc(N5CC6COCC6C5)cc4Cl)C3)CC2)n1 (stereo not drawn) [Example 400, 1-(2-(2-chloro-4-(tetrahydro-1H-furo[3,4-c]pyrrol-5(3H)-yl)benzyl)-2,8-diazaspiro[4.5]decane-8-carbonyl)-1H-pyrazole-3-carboxylic acid]
> 75%	> 75%	–	C[C@H]1C[C@@H](N(C)Cc2cccc(C(F)(F)F)c2)CCN1C(=O)n1ccc(C(N)=O)n1 [Example 24, 1-((2S,4S)-2-Methyl-4-(methyl(3-(trifluoromethyl)benzyl)amino)piperidine-1-carbonyl)-1H-pyrazole-3-carboxamide]
> 75%	> 75%	–	CN(Cc1ccc(C(F)(F)F)cc1N1CCC1)C1(C)CCN(C(=O)n2ccc(C(=O)O)n2)CC1 [Example 362, 1-(4-((2-(azetidin-1-yl)-4-(trifluoromethyl)benzyl)(methyl)amino)-4-methylpiperidine-1-carbonyl)-1H-pyrazole-3-carboxylic acid]
–	0 to 25%	> 75%	O=C(O)c1ccn(C(=O)N2CCC3(CCN(Cc4cccc(-c5ccccn5)c4)C3)CC2)n1 [Example 301, 1-(2-(3-(pyridin-2-yl)benzyl)-2,8-diazaspiro[4.5]decane-8-carbonyl)-1H-pyrazole-3-carboxylic acid]
> 75%	> 75%	–	O=C(O)c1ccn(C(=O)N2CCC3(CCN(Cc4cccc(C(F)(F)F)c4Cl)C3)CC2)n1 [Example 339, 1-(2-(2-chloro-3-(trifluoromethyl)benzyl)-2,8-diazaspiro[4.5]decane-8-carbonyl)-1H-pyrazole-3-carboxylic acid]
> 75%	> 75%	–	O=C(O)c1nn(C(=O)N2CCN(Cc3cccc(Oc4cc(C(F)(F)F)ccn4)c3)CC2)cc1C(F)(F)F [Example 414, 4-(trifluoromethyl)-1-(4-(3-((4-(trifluoromethyl)pyridin-2-yl)oxy)benzyl)piper-azine-1-carbonyl)-1H-pyrazole-3-carboxylic acid]
> 75%	> 75%	–	NC(=O)c1ccn(C(=O)N2CC3CN(Cc4ccc(C5(O)CCOCC5)cc4C(F)(F)F)CC3C2)n1 (stereo not drawn) [Example 396]
> 75%	> 75%	–	CC(C)c1ccccc1O[C@H]1C[C@@H]2CN(C(=O)n3ccc(C(=O)O)n3)C[C@@H]2C1 [Example 221, 1-(trans-5-(2-isopropylphenoxy)octahydrocyclopenta [c]pyrrole-2-carbonyl)-1H-pyrazole-3-carboxylic acid]
> 75%	> 75%	–	O=C(O)c1ccn(C(=O)N2CCC3(CCN(Cc4cc(Cl)ccc4OC(F)(F)F)C3)CC2)n1 [Example 371, 1-(2-(5-chloro-2-(trifluoromethoxy)benzyl)-2,8-diazaspiro[4.5]decane-8-carbonyl)-1H-pyrazole-3-carboxylic acid]
> 75%	> 75%	–	O=C(O)c1ccn(C(=O)N2CCN(Cc3cccc(Oc4ccc(F)cn4)c3)CC2)n1 [Example 266, 1-(4-(3-((5-fluoropyridin-2-yl)oxy)benzyl)piper-azine-1-carbonyl)-1H-pyrazole-3-carboxylic acid]
> 75%	> 75%	–	C[C@@H]1CN(Cc2ccc(F)c(Oc3ccccc3)c2)CCN1C(=O)n1ccc(C(=O)O)n1 [Example 294, (R)-1-(4-(4-fluoro-3-phenoxybenzyl)-2-methylpiperazine-1-carbonyl)-1H-pyrazole-3-carboxylic acid]
0 to 25%	0 to 25%	–	O=C(O)c1ccn(C(=O)N2C[C@H]3C[C@@H](NCc4ccc(Oc5ccc(Cl)cc5)cc4)C[C@H]3C2)n1 [Example 363, 1-(cis-5-((4-(4-chlorophenoxy)benzyl)amino)octa-hydrocyclopenta[c]pyrrole-2-carbonyl)-1H-pyrazole-3-carboxylic acid]
> 75%	> 75%	–	C[C@@H]1CN(Cc2cc(F)cc(Oc3ccccc3Cl)c2)CCN1C(=O)n1ccc(C(=O)O)n1 [Example 350, (R)-1-(4-(3-(2-chlorophenoxy)-5-fluorobenzyl)-2-methylpiperazine-1-carbonyl)-1H-pyrazole-3-carboxylic acid]
